Values joined by “and” are separate entries in the source; they are usually repeats but may differ in a detail not shown here. Equal entries are not always repeated.
How the values were obtained:
[1] = tested on: rice blast (Magnaporthe grisea); assay: microbe, parasite or virus in culture; assay type: cell-based; conditions: for Activity against rice blast in vitro (%): Table 10; for inhibition at 0.03 µg/mL / inhibition at 0.3 µg/mL: Pyricularia oryzae, read-out: Inhibition rate against rice blast (%)
[2] = tested on: cucumber gray mold (Botrytis cinerea); assay: microbe, parasite or virus in culture; assay type: cell-based; conditions: read-out: Inhibition rate against cucumber gray mold (%)
[3] = tested on: cucumber downy mildew (Pseudoperonospora cubensis); assay: whole plant or invertebrate; assay type: in vivo; conditions: for pest or weed control at 3.125 µg/mL / pest or weed control at 12.5 µg/mL / pest or weed control at 50 µg/mL: Pseudoperonospora cubensis, 168 h, read-out: Protectant activity (%) against cucumber downy mildew in vivo
[4] = tested on: corn rust (Puccinia sorghi)
[5] = tested on: rice sheath blight (Rhizoctonia solani Palo); assay type: cell-based
[6] = tested on: cucumber fusarium wilt (Fusarium oxysporum f. sp.); assay type: cell-based
[7] = tested on: pear scab (Fusicladium pirina); assay type: cell-based
[8] = tested on: cotton nthracnose (Colletotrichum gossypii Southw.); assay type: cell-based
[9] = tested on: rape sclertiniose (Sclerotinia sclerotiorum); assay type: cell-based

Compound | inhibition at 0.03 µg/mL [1] [%] | inhibition at 0.3 µg/mL [1] [%] | inhibition at 0.03 µg/mL [2] [%] | inhibition at 0.1 µg/mL [2] [%] | inhibition at 0.3 µg/mL [2] [%] | pest or weed control at 3.125 µg/mL [3] [%] | pest or weed control at 12.5 µg/mL [3] [%] | pest or weed control at 50 µg/mL [3] [%] | further results
Cc1cc([N+](=O)[O-])cc([N+](=O)[O-])c1Nc1c(Cl)cc(Cl)cc1Cl [contrast ACS] | 0 | 0 | 0 | 0 | 0 | 0 | 0 | 0 | Activity against rice blast in vitro (%) ([1]; 0.9 mg/L): 0%; Activity against rice blast in vitro (%) ([1]; 2.8 mg/L): 0%; Activity against rice blast in vitro (%) ([1]; 8.3 mg/L): 0%; Activity against rice blast in vitro (%) ([1]; 25 mg/L): 0%; Protectant activity against cucumber downy mildew in vivo (%) ([3]; in vivo): 0%; Protectant activity (%) against corn rust in vivo [4]: 0%
COc1ccc(C(=CC(=O)N2CCOCC2)c2ccc(Cl)cc2)cc1OC [dimethomorph] | – | – | – | – | – | 35 | 80 | 100 | –
c1ccc(Nc2ccccc2)cc1 [diphenylamine] | – | – | – | – | – | 0 | 0 | 0 | –
O=[N+]([O-])c1cc(C(F)(F)F)c(Cl)c([N+](=O)[O-])c1Nc1ncc(C(F)(F)F)cc1Cl [fluazinam] | 50 | 100 | 0 | 80 | 100 | 40 | 95 | 100 | Activity in vitro (%), rice sheath blight [5]: 97% and 83% and 69%; Activity in vitro (%), cucumber fusarium wilt [6]: 92% and 85% and 56%; Activity in vitro (%), pear scab [7]: 94% and 89% and 47%; Activity in vitro (%), cotton nthracnose [8]: 100% and 97% and 71%; Activity in vitro (%), rape sclertiniose [9]: 100% and 97% and 57%
Cc1c(Cl)c([N+](=O)[O-])cc([N+](=O)[O-])c1Cl [intermediate B] | – | – | – | – | – | 0 | 0 | 0 | –
Nc1c(Cl)cc([N+](=O)[O-])cc1Cl [intermediate C] | – | – | – | – | – | 0 | 0 | 0 | –
